# From publication PMC5607274, “An iterative compound screening contest method for identifying target protein inhibitors using the tyrosine-protein kinase Yes” (Scientific Reports, 2017)
# Biological target: T1, human recombinant Yes [a.a. 2–543 (end)] (Homo sapiens, UniProt P07947)
# T1 construct: human recombinant Yes [a.a; 2–543 (end)]; purchased BPS Bioscience 40488
# Experiment: ADP-Glo kinase assay, inhibition rates of Yes phosphorylation activity (first and second screening)
# Format: biochemical
# Conditions: first screening; mean of n = 4 wells; 10 μmol L−1 compound
# Summary of the method: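 ADP-Glo luminescence measured inhibition of human recombinant Yes (a.a. 2–543) phosphorylation activity. In the first screen, each compound ran in 4 wells and inhibition rates were averaged. The second screen retested hits as compounds dissolved from fresh powder.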
# T1 sequence (P07947 2-543): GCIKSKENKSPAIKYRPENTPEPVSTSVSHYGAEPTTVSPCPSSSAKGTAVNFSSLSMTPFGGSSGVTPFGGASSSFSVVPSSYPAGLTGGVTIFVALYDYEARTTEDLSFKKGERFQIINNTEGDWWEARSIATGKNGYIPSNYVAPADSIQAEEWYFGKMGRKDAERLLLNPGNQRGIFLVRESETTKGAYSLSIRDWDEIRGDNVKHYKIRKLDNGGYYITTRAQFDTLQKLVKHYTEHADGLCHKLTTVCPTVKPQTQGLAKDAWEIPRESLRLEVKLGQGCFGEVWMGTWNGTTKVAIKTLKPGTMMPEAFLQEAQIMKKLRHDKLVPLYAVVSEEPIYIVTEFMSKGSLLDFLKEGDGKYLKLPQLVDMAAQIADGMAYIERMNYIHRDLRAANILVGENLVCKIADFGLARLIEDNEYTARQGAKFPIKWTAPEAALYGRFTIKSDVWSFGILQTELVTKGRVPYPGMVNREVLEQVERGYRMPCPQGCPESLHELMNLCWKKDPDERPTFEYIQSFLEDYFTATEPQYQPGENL
row,First screening IR (inhibition rate) [%],SMILES
1,6,c1ccc(-c2nc3c4ccccc4c4ccccc4c3n2-c2ccccc2)cc1 [Compound Z56798059]
2,-3,COc1ccccc1Nc1ncnc(N)n1 [Compound Z56799636]
3,27,CCc1cccc(CC)c1NC(=O)COC(=O)CC1c2ccccc2CCN1S(=O)(=O)c1ccc(F)cc1 (stereo not drawn) [Compound Z56803956]
4,-7,O=C(Nc1ccc(C2(c3ccc(NC(=O)c4ccc(N5CCCCCC5)c([N+](=O)[O-])c4)cc3)CCCCC2)cc1)c1ccc(N2CCCCCC2)c([N+](=O)[O-])c1 [Compound Z56818449]
5,-14,CCc1ccc(-c2cc(-c3ccccc3)c3c(n2)/C(=C\c2ccc(N(C)C)cc2)CCC3)cc1 [Compound Z56830412]
6,18,COc1cc(/C=N/Nc2nc(-c3ccncc3)nc3ccccc23)ccc1O [Compound Z56841676]
7,1,Cc1cc(N=C2C(=O)Nc3c(Cl)cc(Cl)cc32)ccc1Br [Compound Z56849070]
8,9,Nc1c(S(=O)(=O)c2ccccc2)c2nc3ccccc3nc2n1CCNC(=O)c1ccc(Cl)cc1 [Compound Z56854331]
9,7,COc1ccc(-n2nnc3c4c(c(Nc5ccc(C)cc5)cc32)C(=O)c2ccccc2C4=O)cc1 [Compound Z56857970]
10,2,COc1ccc(Nc2cc3c(nnn3-c3ccc(C)cc3)c3c2C(=O)c2ccccc2C3=O)cc1 [Compound Z56857974]
11,42,O=C(NC1(C(F)(F)F)Oc2ccccc2O1)Sc1ccccc1 [Compound Z56864837]
12,6,COc1ccc(/C(O)=C2\C(=O)C(=O)N(CCN3CCNCC3)C2c2cccc(Oc3ccccc3)c2)cc1 (stereo not drawn) [Compound Z56865657]
13,2,CCOC(=O)c1c(Nc2nc3ccccc3nc2N2CCN(Cc3ccccc3)CC2)sc(C)c1C [Compound Z56866112]
14,-20,O=S(=O)(c1cccc(-c2n[nH]c(-c3ccccc3)c2-c2nc3ccccc3[nH]2)c1)N1CCCC1 [Compound Z56870429]
15,-3,CC(c1ccccc1)n1c(NC(=O)c2ccccc2)c(S(=O)(=O)c2ccccc2)c2nc3ccccc3nc21 (stereo not drawn) [Compound Z56877281]
16,-18,NS(=O)(=O)c1cc(S(=O)(=O)c2ccc(Cl)c(S(N)(=O)=O)c2)ccc1Cl [Compound Z56888775]
17,-4,CSc1ncccc1C(=O)OCC(=O)Nc1nc2ccccc2s1 [Compound Z56896575]
18,8,Cc1c(N=C2SC(CC(=O)Nc3ccc(F)cc3)C(=O)N2CC2CCCCC2)c(=O)n(-c2ccccc2)n1C (stereo not drawn) [Compound Z56900652]
19,16,COc1ccc(NC(=O)c2c(Nc3ccc(OC(F)F)cc3)sc(C(=O)Nc3ccc4c(c3)OCO4)c2N)cc1Cl [Compound Z56918070]
20,-24,Cc1ccc(-c2nn3c(=O)c4c5c(sc4nc3c3ccccc23)CC(C(C)(C)C)CC5)cc1 (stereo not drawn) [Compound Z56929220]
21,12,Nc1ncnc(Nc2ccccc2F)n1 [Compound Z56931704]
22,13,Nc1ncnc(Nc2cccc(C(F)(F)F)c2)n1 [Compound Z56931708]
23,-10,COc1ccc(CCNC(=O)Cn2c(CN3CCOCC3)nc3sc4c(c3c2=O)CCC(C)C4)cc1 (stereo not drawn) [Compound Z56952971]
24,51,CCOc1ccc(-c2nc3ccccc3c(-c3ccccc3)c2Cl)cc1.Cl [Compound Z57038735]
25,6,COc1ccc(Nc2nc(NCCN3CCOCC3)nc(Nc3ccc(OC)cc3)n2)cc1 [Compound Z57049315]
26,3,O=S1(=O)CCC(SSC2CCS(=O)(=O)C2)C1 (stereo not drawn) [Compound Z57056477]

# Continued, compound first:
row,SMILES,First screening IR (inhibition rate) [%]
1,Cc1cccc(C)c1OCc1nc2c3c(-c4ccccc4)c(-c4ccccc4)oc3ncn2n1 [Compound Z56793398],20
2,Clc1ccc(/C=N/Nc2ncnc3c2cnn3-c2ccccc2)cc1 [Compound Z56795594],13
3,Clc1ccc(/C=C2/CCCc3c2nc2ncnn2c3-c2ccc(Cl)cc2Cl)c(Cl)c1 [Compound Z56798990],3
4,Clc1ccccc1/C=C1\CCCc2c1nc1ncnn1c2-c1ccccc1Cl [Compound Z56799005],6
5,O=C(Nc1cc(C(F)(F)F)ccc1N1CCCCC1)c1ccc(Cl)c(S(=O)(=O)Nc2ccccc2C(=O)Nc2cc(C(F)(F)F)ccc2N2CCCCC2)c1 [Compound Z56805970],44
6,CN(C1CCS(=O)(=O)C1)S(=O)(=O)c1ccc(F)cc1 (stereo not drawn) [Compound Z56813369],-5
7,Cc1ccc(NC(=O)C(=O)c2c(-c3ccccc3)cc3ccccn23)cc1S(=O)(=O)N1CCOCC1 [Compound Z56835405],-2
8,Cc1cc(C)n(-c2nc(-c3cccnc3)nc3ccccc23)n1 [Compound Z56839033],12
9,Brc1cccc(C2C=C(c3ccccc3)Nc3ncnn32)c1 (stereo not drawn) [Compound Z56850769],9
10,COCCN1C(=O)/C(=C/c2c(N3CCN(Cc4ccccc4)CC3)nc3ccc(C)cn3c2=O)SC1=S [Compound Z56850824],-11
11,COc1ccc(CCNC(=O)C(C#N)c2nc3ccccc3nc2N2CCN(Cc3ccccc3)CC2)cc1 (stereo not drawn) [Compound Z56851971],3
12,Cn1nc([N+](=O)[O-])c2c(-c3nc4ccccc4n3C)c(N)n(C3CCCCC3)c2c1=O [Compound Z56852588],5
13,CCN1CCN(c2nc3ccccc3nc2C(C#N)C(=O)NCCc2ccc(OC)c(OC)c2)CC1 (stereo not drawn) [Compound Z56854281],38
14,N#CC(C(=O)NCc1ccc2c(c1)OCO2)c1nc2ccccc2nc1N1CCN(Cc2ccccc2)CC1 (stereo not drawn) [Compound Z56854297],-7
15,CCOC(=O)c1c(-c2ccc(C)cc2)csc1Nc1nc2ccccc2nc1N1CCN(CC)CC1 [Compound Z56854384],-3
16,CN(C)S(=O)(=O)c1cc(S(=O)(=O)c2ccc(Cl)c(S(=O)(=O)N(C)C)c2)ccc1Cl [Compound Z56862791],1
17,Cc1cc(=O)[nH]c(SCC(=O)c2ccc3c(c2)NC(=O)CO3)n1 [Compound Z56863397],-14
18,Cc1cccc(C)c1N=C1SC(C(=O)Nc2ccc(OC(F)F)cc2)C(N)=C1C(=O)N1CCN(C)CC1 (stereo not drawn) [Compound Z56863426],15
19,CCCCC(CC)CN1C(=O)/C(=C/c2c(NCCCn3ccnc3)nc3c(C)cccn3c2=O)SC1=S (stereo not drawn) [Compound Z56863942],0
20,CCCCCCCCN1C(=O)/C(=C/c2c(NCCCN3CCOCC3)nc3c(C)cccn3c2=O)SC1=S [Compound Z56863983],0

row,SMILES,First screening IR (inhibition rate) [%]
1,Cc1cc(/C(O)=C2\C(=O)C(=O)N(CCN3CCOCC3)C2c2ccc(F)cc2)ccc1OCC(C)C (stereo not drawn) [Compound Z56865693],-1
2,COC(=O)c1c(Nc2nc3ccccc3nc2N2CCN(C/C=C/c3ccccc3)CC2)sc(C)c1C [Compound Z56867786],11
3,COc1ccc(CCn2c(N)c(C(=O)NCc3ccc4c(c3)OCO4)c3nc4ccccc4nc32)cc1OC [Compound Z56872869],34
4,CCCCCn1c(N)c(C(=O)NCCN2CCOCC2)c2nc3ccccc3nc21 [Compound Z56872965],48
5,NS(=O)(=O)c1ccc(Cl)c(S(N)(=O)=O)c1 [Compound Z56877166],0
6,CN(C)S(=O)(=O)c1ccc(Cl)c(S(=O)(=O)N(C)C)c1 [Compound Z56877204],7
7,CN(C)S(=O)(=O)c1cccc(S(=O)(=O)c2cccc(S(=O)(=O)N(C)C)c2)c1 [Compound Z56877233],7
8,Cc1ccc(/C=C/C2=Cc3c(sc(N)c3C#N)C(C)(C)C2)o1 [Compound Z56910454],31
9,Cl.Nc1ccc(-c2cc(-c3ccccc3)c3cc(Cl)ccc3n2)cc1 [Compound Z56913268],-5
10,CC(=O)c1cccc(NC(=O)c2sc(Nc3ccc(C)cc3)c(C(=O)NCCN3CCOCC3)c2N)c1 [Compound Z56914008],-3
11,Cc1[nH]n(-c2ccccc2)c(=O)c1/C(=N/NC(=O)c1cc(-c2ccccc2)n[nH]1)c1ccccc1 [Compound Z56919929],1
12,Nc1ncnc(Nc2ccc(F)cc2)n1 [Compound Z56931701],-4
13,COc1ccc(Nc2ncnc(N)n2)cc1 [Compound Z56938001],14
14,N#Cc1c(NC(=O)COC(=O)c2cn(-c3ccccc3)nc2-c2cccnc2)oc(-c2ccccc2)c1-c1ccccc1 [Compound Z56941227],-9
15,Cc1ccc(N(C(=O)c2ccc(C(C)(C)C)cc2)C2C=CS(=O)(=O)C2)cc1 (stereo not drawn) [Compound Z56970107],4
16,O=S(=O)(Cl)c1ccc(S(=O)(=O)N2CCCC2)cc1 [Compound Z56979291],9
17,Cc1cc(C)c(NC(=O)C2CCN(c3ncnc4sc(C)c(C)c34)CC2)c(C)c1 [Compound Z57042877],0
18,O=S1(=O)C=C(Cl)C(Br)C1 (stereo not drawn) [Compound Z57056476],1
19,O=S1(=O)CCC(S(=O)(=O)c2ccccc2)C1 (stereo not drawn) [Compound Z57056479],4

# Same assay, conditions: second screening, dissolved from fresh powder; n = 4; 10 μmol L−1 compound
row,SMILES,Second screening IR (inhibition rate) [%]
1,O=C(Nc1cc(C(F)(F)F)ccc1N1CCCCC1)c1ccc(Cl)c(S(=O)(=O)Nc2ccccc2C(=O)Nc2cc(C(F)(F)F)ccc2N2CCCCC2)c1 [Compound Z56805970],-10
2,COc1ccc(CCn2c(N)c(C(=O)NCc3ccc4c(c3)OCO4)c3nc4ccccc4nc32)cc1OC [Compound Z56872869],-24
3,Cc1ccc(/C=C/C2=Cc3c(sc(N)c3C#N)C(C)(C)C2)o1 [Compound Z56910454],36
4,CCOc1ccc(-c2nc3ccccc3c(-c3ccccc3)c2Cl)cc1.Cl [Compound Z57038735],2
